# Source: US20240366624A1, “METHODS AND COMPOSITIONS FOR TREATING THROMBOTIC DISEASE” (Washington University, priority 2023, published 2024)
# Legend:
# [1] = target: T1, ERO1α (Homo sapiens, UniProt Q96HE7); test: ERO1α activity assay; assay type: biochemical
# T1 sequence (Q96HE7 24-468): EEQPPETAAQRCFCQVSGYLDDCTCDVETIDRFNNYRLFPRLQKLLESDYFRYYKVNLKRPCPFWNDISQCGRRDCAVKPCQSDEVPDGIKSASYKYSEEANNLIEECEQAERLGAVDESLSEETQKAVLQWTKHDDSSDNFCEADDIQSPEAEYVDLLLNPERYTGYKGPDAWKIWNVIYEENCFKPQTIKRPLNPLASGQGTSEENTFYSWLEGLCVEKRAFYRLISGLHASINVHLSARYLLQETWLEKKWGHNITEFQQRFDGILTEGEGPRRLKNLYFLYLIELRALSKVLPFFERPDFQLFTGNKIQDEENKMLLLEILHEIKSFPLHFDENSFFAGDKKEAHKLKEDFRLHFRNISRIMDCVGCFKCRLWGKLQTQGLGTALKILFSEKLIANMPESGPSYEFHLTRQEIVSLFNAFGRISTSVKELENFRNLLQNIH
# Source text: (§1) FIG. 17(A-F) is an exemplary embodiment of identification of novel ERO1α inhibitors by high throughput screening in accordance with the present disclosure. FIG. 17A: A scheme of an ERO1α activity assay. FIG. 17B: Screening of chemical libraries in the ERO1α activity assay. FIG. 17C: The inhibitory effect of selected compounds on ERO1α activity. FIG. 17D: The inhibitory effect of selected compounds on PDI activity. FIG. 17E: The inhibitory effect of selected compounds on H2O2 activity. FIG. 17F: The inhibitory effect of selected compounds on thiol-reacting activity. The data represent the mean±SD (n=3). *P<0.05, **P<0.01, ***P<0.001, and ****P<0.0001 vs. vehicle control, Student's t-test.
# (§2) To identify a novel ERO1α inhibitor, 5800 compounds were screened using an ERO1α activity assay (FIG. 17A and FIG. 17B). […] The selected compounds were further tested in assays measuring PDI, antioxidant, and thiol-reacting activities (FIG. 17D through FIG. 17F). […] B12 inhibited P-selectin exposure and αIIbβ3 activation in agonist-activated mouse and human platelets in a concentration-dependent manner (FIG. 18B through FIG. 18E).
# [2] = target: PDI (Homo sapiens, UniProt P07237); test: PDI activity assay; assay type: biochemical
# Chain of PDI (P07237 18-508, species assumed): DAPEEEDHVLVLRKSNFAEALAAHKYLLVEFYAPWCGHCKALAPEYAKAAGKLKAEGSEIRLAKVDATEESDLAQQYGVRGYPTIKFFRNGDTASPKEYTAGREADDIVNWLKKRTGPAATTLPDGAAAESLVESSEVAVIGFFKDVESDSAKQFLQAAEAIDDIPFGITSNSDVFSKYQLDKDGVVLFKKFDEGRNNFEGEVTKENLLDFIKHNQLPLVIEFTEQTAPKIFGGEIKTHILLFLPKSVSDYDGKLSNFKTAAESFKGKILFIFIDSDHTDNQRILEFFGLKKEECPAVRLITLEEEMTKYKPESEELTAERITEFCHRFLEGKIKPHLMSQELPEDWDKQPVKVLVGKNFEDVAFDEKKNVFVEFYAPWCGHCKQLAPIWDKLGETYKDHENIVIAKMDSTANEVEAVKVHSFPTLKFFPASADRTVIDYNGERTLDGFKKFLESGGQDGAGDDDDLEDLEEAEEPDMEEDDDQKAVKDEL
# Source text: as §1, §2
# [3] = H2O2 (antioxidant) activity assay; assay type: biochemical
# Source text: as §1, §2
# [4] = thiol-reacting (GSH) activity assay; assay type: biochemical
# Source text: as §1, §2
# [5] = target: T2, MAO-A (monoamine oxidase A) (Homo sapiens, UniProt P21397); test: MAO-A activity assay; assay type: biochemical
# T2 sequence (P21397 1-527): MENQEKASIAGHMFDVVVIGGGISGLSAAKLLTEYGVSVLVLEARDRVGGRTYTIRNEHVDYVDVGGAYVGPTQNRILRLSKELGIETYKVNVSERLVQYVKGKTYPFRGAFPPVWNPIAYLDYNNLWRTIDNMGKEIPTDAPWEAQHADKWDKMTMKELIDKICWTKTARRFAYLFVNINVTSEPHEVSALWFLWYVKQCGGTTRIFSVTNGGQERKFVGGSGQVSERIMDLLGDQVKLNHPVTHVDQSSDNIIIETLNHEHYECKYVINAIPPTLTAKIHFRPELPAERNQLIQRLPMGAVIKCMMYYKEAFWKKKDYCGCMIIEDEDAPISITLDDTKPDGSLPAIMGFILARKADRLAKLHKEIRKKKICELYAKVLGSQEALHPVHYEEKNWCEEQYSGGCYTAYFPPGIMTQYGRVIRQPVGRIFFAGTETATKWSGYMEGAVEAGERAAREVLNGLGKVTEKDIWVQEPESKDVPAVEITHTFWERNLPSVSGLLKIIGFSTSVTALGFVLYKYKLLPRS
# [6] = test system: mouse platelets; test: Flow cytometry of P-selectin exposure and αIIbβ3 integrin activation, mouse platelets; assay type: cell-based; conditions: agonist-activated mouse platelets, concentration-dependent
# Procedure: FIG. 10(A-E) is an exemplary embodiment of 15E9 not affecting platelet activation and aggregation in accordance with the present disclosure. Mouse platelets were treated with 0.02-0.03 (FIG. 10A P-selectin, FIG. 10B aIIbβ3) or 0.025 U/ml thrombin (FIG. 10C) in the presence of 10 μg/ml mouse IgG2a (IgG2a) or a blocking anti-ERO1α antibody (15E9). Flow cytometry (FIG. 10(A-B)) and aggregation (FIG. 10C) assays were performed. FIG. 10D: Human platelets were treated with 0.025 U/ml thrombin in the presence of mouse IgG2a (mIgG2a) or 10 μg/ml 15E9 and 16B6, followed by measuring aggregation. […] P values determined by unpaired Student's t-test (vs. mIgG1).
# FIG. 18(A-R) is an exemplary embodiment of novel small-molecule inhibitors recapitulating the defect in Ero1α (endoplasmic reticulum oxidoreductase 1a)-null platelets in accordance with the present disclosure. […] After incubation with a different concentration of B12-5, the specific interaction between B12-5 and ERO1α was measured by subtracting the nonspecific binding. The KD value was calculated from the Kon and Koff values. […] P values determined by ANOVA and Dunnett test (FIG. 18(B-E), FIG. 18(1-L), and FIG. 18(O-R) [for B12-5]) or Student t test (FIG. 18M, FIG. 18N, and FIG. 18(O-R) [for BAPTA (1,2-bis(o-aminophenoxy)ethane-N,N,N′,N′-tetraacetic acid)]). […]
# [7] = test system: human platelets; test: Flow cytometry of P-selectin exposure and αIIbβ3 integrin activation, human platelets; assay type: cell-based; conditions: agonist-activated human platelets, concentration-dependent
# Source text: FIG. 18(A-R) is an exemplary embodiment of novel small-molecule inhibitors recapitulating the defect in Ero1α (endoplasmic reticulum oxidoreductase 1a)-null platelets in accordance with the present disclosure. FIG. 18A: The structure of B12 and its inhibitory effect on ERO1α activity. FIG. 18(B-E): The inhibitory effect of B12 on P-selectin exposure and αIIbβ3 integrin activation in (FIG. 18B and FIG. 18C) mouse and (FIG. 18D and FIG. 18E) human platelets. FIG. 18F: The structure of B12-5 and its inhibitory effect on ERO1α activity. FIG. 18G: A docking model of B12-5-ERO1α (3AHQ) and flavin adenine dinucleotide (FAD)-ERO1α complex. There are pi-sulfur interactions of the phenothiazine head group (B112-5) or a tricyclic ring (FAD) with Met389 and Cys397. Also, there are H bond interactions between the tail/alkyl group and His255, Asn259, and Arg287. […] After incubation with a different concentration of B12-5, the specific interaction between B12-5 and ERO1α was measured by subtracting the nonspecific binding. The KD value was calculated from the Kon and Koff values. […] P values determined by ANOVA and Dunnett test (FIG. 18(B-E), FIG. 18(1-L), and FIG. 18(O-R) [for B12-5]) or Student t test (FIG. 18M, FIG. 18N, and FIG. 18(O-R) [for BAPTA (1,2-bis(o-aminophenoxy)ethane-N,N,N′,N′-tetraacetic acid)]). […]
smiles,measurement,setting,value
O=C(CSc1nc(O)c2nc[nH]c2n1)N1c2ccccc2Sc2ccccc21 [B12],inhibition at 20 µM,[1],72.9 ± 12%
same,IC50,"[1]; read-out: IC50, ERO1α activity",12.4 µM
same,inhibition at 100 µM,[2],4.8 ± 1%
same,effect on PDI activity,[2]; at or up to 100 μM,without affecting
same,H2O2 inhibition at 100 μM (%),[3]; 100 μM,4.7 ± 1%
same,effect on H2O2 (antioxidant) activity,[3]; at or up to 100 μM,without affecting
same,GSH inhibition at 100 μM (%),[4]; 100 μM,5.1 ± 2%
same,effect on thiol-reacting activity,[4]; at or up to 100 μM,without affecting
same,inhibition at 100 µM,[5],25.3 ± 5%
same,P-selectin exposure and αIIbβ3 activation,[6],inhibited
same,P-selectin exposure and αIIbβ3 activation,[7],inhibited
